The source of these data is patent US6861578B1, “Method for plant protection against insects or nematodes by transformation with a nucleic acid encoding equistatin” (Plant Research International B.V., priority 1997, dated 2005).

Where a SMILES comes first, the peptide text is derived from it. [ ]: non-standard residue; d: D form. The star is where a group is joined. Sta = CC(C)C[C@H](N)[C@@H](O)CC(=O)O; Isovaleryl = CC(C)CC(=O)*

Experiment [1] concerns Colorado potato beetle proteases. Description: Protease activity of Colorado potato beetle larval gut extract at pH 3, FITC-hemoglobin. In kind it is biochemical, Leptinotarsa decemlineata. Details: inhibition of total protease activity / increase of inhibition by addition of equistatin to E64 / increase of inhibition by addition of equistatin to pepstatin: concentration or dose not given beside the values. Conditions: for inhibition of total protease activity: Colorado potato beetle, pH3; for residual protease activity: colorado potato beetle pH 3, recombinant equistatin. On the procedure: (§1) Adult western flower thrips (Frankliniella occidentalis) and leafmirer flies (Liriomyza trifolii) adult were harvested from a culture maintained on chrysanthemum plants and complete thrips and flies were homogenized in extraction on buffer (200 mM β-alanine-HCl, pH 3.5) in a volume of 5 times the weight of the insects. The buffer pH was at the previously determined pH optimum of protease activity towards hemoglobin. Final instar Colorado potato beetle larvae maintained on potato plants as described in example 5 were checked for gut aspartic protease activity by preparing a total gut extract in pH 3 buffer which is optimal for Colorado potato beetle aspartic proteases (200 mM glycine, pH 3). Guts were homogenized in 100 μl buffer per gut. Third instar western corn rootworm larvae maintained on corn roots were used to remove the guts. Ten guts were homogenized in 100 μl water and spinned twice to remove insoluble material. Two types of buffers were used in the enzymatic assay. One with a pH presumably favoring cysteine proteases (50 mM MES, pH 6.5; 0.6 mg/ml L-cysteine) and one for detecting aspartic proteases (200 mM glycine, pH 3). Supernatants were stored at −20° C.
(§2) 2 μl gut extract was combined with 2 μl inhibitor (2 mM pepstatin in methanol, 4 mM E64 in water, 2 mg/ml recombinant equistatin in water. The concentration of the other proteinaceous inhibitors was not known exactly). Appropriate buffers were added to a final volume of 100 μl. After 15′ preincubation 20 μl substrate (5 mg/ml FITC-hemoglobin) was added and incubated for 30-45 min at 37 C.
(§3) Reaction was stopped by the addition of 100 μl 10% TCA. Tubes were centrifuged and 100 μl supernatant mixed with 100 μl 10 N NaOH was measured on a fluorimeter for the extent of hemoglobin hydrolysis. Measurements were done in duplicate on one (thrips, leafminer and western corn rootworm), or three (Colorado potato beetle) different gut extracts and varied by a maximum of +/−5%.

In a further experiment the test system is leafminer proteases. The experiment is described as follows: Protease activity of adult leafminer fly extract, FITC-hemoglobin. Type of experiment: biochemical, Liriomyza trifolii. Conditions: for residual protease activity: leafminer pH 3.5, equistatin purified from sea anemone. Here is the method: as §1, §2, §3
Experiment [2] has as its system western corn rootworm cysteine and aspartic protease activity. Description: Protease activity of western corn rootworm larval gut extract, FITC-hemoglobin. In kind it is biochemical, Diabrotica virgifera. Conditions: recombinant equistatin. Here is the method: as §1, §2, §3
The subject of the next experiment is thrips protease activity. The experiment is described as follows: Protease activity of adult western flower thrips extract, FITC-hemoglobin. Set-up: inhibition of protease activity: concentration or dose not given beside the values. The note with it: for residual protease activity: thrips pH 3.5, equistatin purified from sea anemone; for inhibition of protease activity: thrips, pH 3.5. Type of experiment: biochemical, Frankliniella occidentalis. On the procedure:
as §1, §2, §3

The target of experiment [3] is proteases in extracts of adult western flower thrips (Frankliniella occidentalis). Description: cell-based or functional assay.
The target in experiment [4] is proteases in extracts of adult leafminer flies (Liriomyza trifolii). The experiment is described as follows: cell-based or functional assay.
The target of experiment [5] is potato protease inhibitor-insensitive cysteine proteases of Colorado potato beetle (Leptinotarsa decemlineata) larval gut extracts. Description: cell-based or functional assay.

p41 invariant chain fragment, sequence (P04233 210-274, change not shown): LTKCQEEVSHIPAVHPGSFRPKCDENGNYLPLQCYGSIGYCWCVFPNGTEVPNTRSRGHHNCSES

With `CC(C)C[C@H](NC(=O)[C@H]1O[C@@H]1C(=O)O)C(=O)NCCCCN=C(N)N` (relative stereo) [E64, N-(L-3-trans carboxyoxiran-22-carbomyl)-L-leucyl-amido-4-guani-dobutane, reference compound], the “inhibition of total protease activity” value in experiment [1] is 24%. In addition, the residual protease activity was determined as 76% in experiment [1]; 27% in the experiment on leafminer proteases; 35% in experiment [2] (western corn rootworm pH 3); 51% in experiment [2] (western corn rootworm pH 6.5); 8% in the experiment on thrips protease activity. Further, the entries for the “inhibition of protease activity” value in the experiment with leafminer proteases (leafminer) and in the experiment with thrips protease activity were 73% and 92%, respectively.
Compound “p41 invariant chain fragment (from UniProt P04233 194-258)” returned a residual protease activity (FITC-hemoglobin), pH 3.5 (% residual activity) in experiment [3] of 13. The residual protease activity (FITC-hemoglobin), pH 3.5 (% residual activity) in experiment [4] worked out at 43. Further, in experiment [5], the residual amino-peptidase activity (L-Arg-pNA), equimolar inhibitor (% of residual activity) was found to be 85; the residual amino-peptidase activity (L-Arg-pNA), excess inhibitor (% of residual activity) came out at 75; the residual broad spectrum endoprotease activity (Z-Phe-Arg-pNA), equimolar inhibitor (% of residual activity) was found to be 30; the residual broad spectrum endoprotease activity (Z-Phe-Arg-pNA), excess inhibitor (% of residual activity) is 20. In experiment [5], the residual general proteolytic activity (azocasein) in excess of inhibitor (% residual activity) is 10; the residual narrow spectrum endoprotease activity (Z-Arg-Arg-pNA), equimolar inhibitor (% of residual activity) is 20; the residual narrow spectrum endoprotease activity (Z-Arg-Arg-pNA), excess inhibitor (% of residual activity) is -5; the residual tri-peptidil-peptidase and endoprotease activity (pGlu-Phe-Leu-pNA), equimolar inhibitor (% of residual activity) is 10. For the same compound, the residual tri-peptidil-peptidase and endoprotease activity (pGlu-Phe-Leu-pNA), excess inhibitor (% of residual activity) in experiment [5] is -5.
bean cystatin: in experiment [3], the residual protease activity (FITC-hemoglobin), pH 3.5 (% residual activity) stood at 14.
In the case of `CC(C)CC(=O)N[C@H](C(=O)N[C@H](C(=O)N[C@@H](CC(C)C)[C@@H](O)CC(=O)N[C@@H](C)C(=O)N[C@@H](CC(C)C)[C@@H](O)CC(=O)O)C(C)C)C(C)C` [Pepstatin, reference compound] (Isovaleryl-VV[Sta]A[Sta]-OH), the “inhibition of total protease activity” value in experiment [1] was 82%. Also, the residual protease activity in experiment [1] is recorded as 18%; in the experiment on leafminer proteases, 46%; in experiment [2] (western corn rootworm pH 3) it was 45%; in experiment [2] (western corn rootworm pH 6.5), 58%; in the experiment with thrips protease activity, 84%. For the same compound, the “inhibition of protease activity” value in the experiment on thrips protease activity is reported as 16%.
